What was measured:
[1] = test system: Phaedon cochleariae; test: Phaedon cochleariae larvae test (cabbage leaf dip); conditions: Table B1, 200 ppm, mustard beetle larvae on cabbage leaves
[2] = test system: Myzus persicae; test: Myzus persicae test (cabbage leaf dip); format: in vivo; conditions: 200 ppm
Text: Solvent: 7 parts by weight of dimethylformamide

Cn1cc(C(=O)Nc2ccccc2C2CC2C2CC2)c(C(F)F)n1 (stereo not drawn) [compound (I-4)]
0%: Kill in % after 6d [1] | Kill in % after 1d ([2]; Table A1, green peach aphid on cabbage leaves, after 1 d) | Kill in % after 6d ([2]; Table A2, after 6 d)

— patent US20090320166A1, “Synergistic Insecticide And Fungicidal Mixtures” (BAYER CROPSCIENCE AG, priority 2006, published 2009)
